The text below walks through data of patent US20080108641A1, “Compounds for treating inflammatory disorders, demyelinating disdorders and cancers” (priority 2006, published 2008).

The test system of one data set is IL-10. As to the kind of experiment: Mediator release, IL-10 (Con A-stimulated PBML, sandwich ELISA). Format: cell-based. The settings on record: Homo sapiens. The method, then:
In this experiment, test compound and/or vehicle were preincubated with human peripheral blood mononuclear leukocyte (PBML, 1×10^6/ml) in RPMI buffer pH 7.4 for 2 hours. Concanavalin A (Con A, 20 μg/ml) was then added to stimulate the cells overnight in 5% CO2 at 37° C. IL-4 and IL-10 cytokine levels in the conditioned medium were then quantified using a sandwich ELISA kit. Compounds were screened at 10, 1, 0.1, 0.01 and 0.001 μM.
For orientation: In an ELISA, binding on a coated surface is turned into a signal by an enzyme label.

Data set [1] has as its system Experimental Autoimmune Encephalomyelitis (EAE). As to the kind of experiment: Acute stage Experimental Autoimmune Encephalomyelitis (EAE) model, daily dosing. The method, then:
Accordingly, three randomized cohorts of guinea pigs with EAE induced by the method of Example 2, were treated, respectively, with 6 mg/kg of Symadex™ (full salt hydrate) and 0.35 mg/kg of mitoxantrone. Animals were treated daily, by intraperitoneal injection, for 15 days, starting on day 7 post immunization. Controls were treated with vehicle. We reasoned that 15 consecutive, 6 mg/kg doses of Symadex™ would represent a level of drug exposure that would be commensurate with the “20 mg/kg every 72 hours” regimen in Example 4 and consistent with a mid level exposure between the 20 mg/kg and the 40 mg/kg schedule given weekly, in Example 2. The mitoxantrone dose was selected to reflect a typical high dose given to rats or mice by daily dosing in the prior art, but allometrically scaled to the guinea pig.

Data set [2] deals with B-lymphocyte cells isolated from the spleen. The data set is described as follows: Cell proliferation, B-Cell + LPS ([3H]thymidine incorporation). Format: cell-based, balb/c mice. The settings on record: Mus musculus. The method, then:
B-lymphocyte cells isolated from the spleen of balb/c mice weighing 17±1 g were used. Test compound and/or vehicle were incubated with the cells (1.5×10^6/ml) in the presence of 10 μg/ml lipopolysaccharide (LPS) in AIM-V medium pH 7.4 at 37° C. for 24 hours. [^3H]Thymidine (120 nM) was then added for an additional overnight incubation period. Thymidine incorporation was assessed by liquid scintillation counting.
Test compound-induced suppression of cell proliferation by 50 percent or more (≧50%) relative to vehicle control response indicates significant inhibitory activity.
On the technique in general: Dividing cells build labelled thymidine or BrdU into new DNA.

For data set [3] the following is noted: human dose of 540 mg/m^2 body surface area (as free base); cited from earlier work.
For data set [4], the system named is arthritis induced by monoclonal antibodies raised against type II collagen, plus LPS. The data set is described as follows: Collagen monoclonal antibody (mABs) + LPS induced arthritis, hind paw volume. Format: in vivo, BALB/c strain mice. The settings on record: for inhibition of increase in hind paw volume: 30 mg/kg orally x3. The method, then: Groups of 3 BALB/c strain mice, 6-7 weeks of age, were used for the induction of arthritis by monoclonal antibodies (mABs) raised against type II collagen, plus lipopolysaccharide (LPS). A combination of 4 different mABs (D8, F10, DI-2G and A2) totaling 4 mg/mouse was administered to the animal intravenously on day 0, followed by intravenous challenge with […] of LPS 72 hours later (day 3). From day 3, test substance and vehicle were each administered orally once daily for 3 consecutive days. For each animal, volumes of both hind paws were measured using a plethysmometer with water cell (12 mm diameter) on Days 0, 5, 7, 10, 14 and 17.
C0 (Cn): volume of day 0 (day n) in vehicle control
T0 (Tn): volume of day 0 (day n) in test compound-treated group
Reduction of edema in the hind paws by 30% or more is considered significant.

Consider `CCN(CC)CCNc1ccc2ncn3c4ccc(O)cc4c(=O)c1c23` [Symadex™], for which the inhibition at 0.001 µM with IL-10 (read-out: % inhibition of IL-10 release, 1 nM, read-out: % Growth Inhibition) came to 1%; in data set [2] (read-out: % Growth Inhibition) it was 0%. Also, the inhibition at 0.01 µM turned out to be 16% in the data set with IL-10 (read-out: % inhibition of IL-10 release, 10 nM, read-out: % Growth Inhibition) and 38% in data set [2] (read-out: % Growth Inhibition). Also, the inhibition at 0.1 µM in the data set with IL-10 (read-out: % inhibition of IL-10 release, 0.1 μM, read-out: % Growth Inhibition) worked out at 16%; in data set [2] (read-out: % Growth Inhibition), 80%. Moreover, the inhibition at 1 µM in the data set on IL-10 (read-out: % inhibition of IL-10 release, 1 μM, read-out: % Growth Inhibition) stood at 39%; in data set [2] (read-out: % Growth Inhibition), 101%. Further, the inhibition at 10 µM with IL-10 (read-out: % inhibition of IL-10 release, 10 μM, read-out: % Growth Inhibition) is 99%; in data set [2] (read-out: % Growth Inhibition), 103%. Moreover, the IC50 with IL-10 (IL-10 release) stood at 1200 nM; in data set [2], 38 nM. The “clinical score course (neurological impairment)” value in data set [1] (daily i.p. for 15 days from day 7 post immunization, Symadex 6 mg/kg, mitoxantrone 0.35 mg/kg) is “initial rise in neurological impairment is arrested”. The “statistical significance of therapeutic effect on clinical score vs control (Mann-Whitney rank-sum)” value in data set [1] (daily i.p. for 15 days, Symadex 6 mg/kg (p below 0.05), mitoxantrone 0.35 mg/kg) was “reaches statistical significance”. Moreover, in data set [1] (necropsy after 15 daily doses, p value<0.05 from control), the “pathology scores: perivascular cuffing (P), myelitis (E) and demyelination (D) vs control” value was “reducing the perivascular cuffing (P), myelitis (E) and demyelination (D)”. Moreover, the “tolerability of single dose” value in data set [3] was “safe and well-tolerated”. Further, the “increase in hind paw volume” value in data set [4] (day 5, 3 consecutive daily oral doses at 30 mg/kg from day 3, vehicle 42%) is 32%; in data set [4] (day 10, 3 consecutive daily oral doses at 30 mg/kg, vehicle 75%) it was 29%; in data set [4] (day 14, 3 consecutive daily oral doses at 30 mg/kg, vehicle 70%), 18%; in data set [4] (day 17, 3 consecutive daily oral doses at 30 mg/kg, vehicle 47%), 19%. For the same molecule, the “inhibition of increase in hind paw volume” value in data set [4] (day 10) is 61%; in data set [4] (day 14) it was 74%; in data set [4] (day 17) it was 59%.

The inhibition is the drop in the measured response relative to a control, in per cent. The term IC50 denotes the concentration that gives 50% inhibition.
